Values after ≈ are worked out from the molar mass of the structure shown. Active and inactive are the calls of the source. No cut-off for these calls is given here.
How the values were obtained:
[1] = tested on: Streptococcus mutans; test: Antimicrobial activity against Streptococcus mutans UA159 after 24 hr by two-fold serial dilution method; assay type: functional; settings: UA159, 24 h
[2] = tested on: Streptococcus mutans; test: Inhibition of Streptococcus mutans UA159 biofilm formation assessed as conversion of carbohydrates to organic acid measured as pH at 10 ug/ml; assay type: functional
[3] = tested on: Streptococcus mutans; test: Inhibition of Streptococcus mutans UA159 biofilm formation assessed as conversion of carbohydrates to organic acid measured as pH at 5 ug/ml; assay type: functional
[4] = tested on: Streptococcus mutans; test: Inhibition of Streptococcus mutans UA159 biofilm formation assessed as conversion of carbohydrates to organic acid measured as pH at 2.5 ug/ml; assay type: functional
[5] = tested on: Streptococcus mutans; test: Inhibition of Streptococcus mutans UA159 biofilm formation assessed as conversion of carbohydrates to organic acid measured as pH at 1.25 ug/ml; assay type: functional
[6] = tested on: Streptococcus mutans; test: Inhibition of Streptococcus mutans UA159 biofilm formation assessed as conversion of carbohydrates to organic acid measured as pH at 80 ug/ml; assay type: functional
[7] = tested on: Streptococcus mutans; test: Inhibition of Streptococcus mutans UA159 biofilm formation assessed as conversion of carbohydrates to organic acid measured as pH at 40 ug/ml; assay type: functional
[8] = tested on: Streptococcus mutans; test: Inhibition of Streptococcus mutans UA159 biofilm formation assessed as conversion of carbohydrates to organic acid measured as pH at 20 ug/ml; assay type: functional
[9] = tested on: Streptococcus mutans; test: Inhibition of Streptococcus mutans UA159 biofilm formation assessed as conversion of carbohydrates to organic acid measured as pH at 0.625 ug/ml; assay type: functional
[10] = tested on: Streptococcus mutans; test: Inhibition of Streptococcus mutans UA159 biofilm formation assessed as conversion of carbohydrates to organic acid measured as pH at 0.312 ug/ml; assay type: functional
[11] = tested on: Streptococcus mutans; test: Inhibition of Streptococcus mutans UA159 biofilm formation assessed as biofilm thickness at 20 ug/ml after 24 hr by confocal laser scanning microscopic analysis (reference value: 19.74 +/- 0.5 uM); assay type: functional
[12] = tested on: Streptococcus mutans; test: Inhibition of Streptococcus mutans UA159 biofilm formation assessed as inability of cells to aggregrate and form clumps at MIC after 24 hr by confocal laser scanning microscopic analysis; assay type: functional, organism-based
[13] = biological target: T1, Glucosyltransferase-SI (Streptococcus mutans serotype c (strain ATCC 700610 / UA159)) (UniProt P13470); test: Inhibition of Streptococcus mutans UA159 Glucosyltransferase assessed as water-insoluble glucan production using sucrose as substrate at 2.5 ug/ml after 24 hr
T1 sequence (whole entry): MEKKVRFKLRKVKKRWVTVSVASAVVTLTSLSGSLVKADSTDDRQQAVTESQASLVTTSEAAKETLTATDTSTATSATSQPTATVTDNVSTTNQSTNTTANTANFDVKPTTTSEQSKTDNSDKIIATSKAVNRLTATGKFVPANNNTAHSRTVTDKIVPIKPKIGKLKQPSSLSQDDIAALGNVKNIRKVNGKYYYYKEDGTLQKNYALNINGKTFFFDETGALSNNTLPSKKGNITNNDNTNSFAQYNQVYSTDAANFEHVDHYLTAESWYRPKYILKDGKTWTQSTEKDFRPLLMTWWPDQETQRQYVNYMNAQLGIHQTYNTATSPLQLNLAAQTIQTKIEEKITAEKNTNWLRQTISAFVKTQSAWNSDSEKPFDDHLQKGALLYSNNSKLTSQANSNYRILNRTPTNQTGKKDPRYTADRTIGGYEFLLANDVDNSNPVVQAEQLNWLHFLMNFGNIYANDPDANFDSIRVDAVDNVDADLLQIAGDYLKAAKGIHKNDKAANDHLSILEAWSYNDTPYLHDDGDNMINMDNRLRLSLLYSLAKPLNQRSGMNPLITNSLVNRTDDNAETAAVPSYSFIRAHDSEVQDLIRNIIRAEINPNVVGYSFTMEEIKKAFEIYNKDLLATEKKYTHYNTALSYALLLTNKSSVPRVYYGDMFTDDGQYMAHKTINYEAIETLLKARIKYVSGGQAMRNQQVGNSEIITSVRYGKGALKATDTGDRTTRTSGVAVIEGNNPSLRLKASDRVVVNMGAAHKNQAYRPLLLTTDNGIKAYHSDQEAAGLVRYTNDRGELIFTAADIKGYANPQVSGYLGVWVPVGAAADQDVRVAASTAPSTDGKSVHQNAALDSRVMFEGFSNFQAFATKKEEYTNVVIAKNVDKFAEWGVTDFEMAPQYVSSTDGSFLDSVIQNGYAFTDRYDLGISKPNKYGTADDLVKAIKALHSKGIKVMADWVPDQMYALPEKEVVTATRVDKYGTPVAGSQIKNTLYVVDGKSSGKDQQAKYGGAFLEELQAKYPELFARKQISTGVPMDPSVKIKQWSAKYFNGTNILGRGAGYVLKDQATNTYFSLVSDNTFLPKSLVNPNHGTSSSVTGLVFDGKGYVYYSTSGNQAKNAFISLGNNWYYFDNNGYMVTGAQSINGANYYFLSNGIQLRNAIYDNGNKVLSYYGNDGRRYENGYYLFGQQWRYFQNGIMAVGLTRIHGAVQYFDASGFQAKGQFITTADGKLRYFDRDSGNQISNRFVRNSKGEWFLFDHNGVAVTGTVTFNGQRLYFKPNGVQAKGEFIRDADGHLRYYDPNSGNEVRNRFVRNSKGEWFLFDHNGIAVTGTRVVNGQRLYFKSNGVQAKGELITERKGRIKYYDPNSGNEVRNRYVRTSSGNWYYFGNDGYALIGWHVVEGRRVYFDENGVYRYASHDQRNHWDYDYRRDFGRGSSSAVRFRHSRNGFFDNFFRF

[14] = tested on: Streptococcus mutans; test: Inhibition of Streptococcus mutans UA159 cell surface hydrophobicity at 20 ug/ml by spectrophotometry (reference value: 88.01 +/- 1.94%); assay type: functional
[15] = tested on: Streptococcus mutans; test: Inhibition of Streptococcus mutans UA159 cell surface hydrophobicity at 5 ug/ml by spectrophotometry (reference value: 88.01 +/- 1.94%); assay type: functional
[16] = tested on: Streptococcus mutans; test: Inhibition of sucrose-dependent adhesion of Streptococcus mutans UA159 to saliva-coated glass surface at 80 ug/ml by spectrophotometry; assay type: functional, organism-based
[17] = tested on: Streptococcus mutans; test: Inhibition of sucrose-dependent adhesion of Streptococcus mutans UA159 to saliva-coated glass surface at 10 ug/ml by spectrophotometry; assay type: functional
[18] = tested on: Streptococcus mutans; test: Inhibition of sucrose-dependent adhesion of Streptococcus mutans UA159 to saliva-coated glass surface at 1.25 ug/ml by spectrophotometry; assay type: functional
[19] = tested on: Streptococcus mutans; test: Inhibition of adhesion of Streptococcus mutans UA159 to saliva-coated glass surface at 0.156 to 5120 ug/ml by spectrophotometry; assay type: functional, organism-based
[20] = tested on: Streptococcus mutans; test: Inhibition of Streptococcus mutans UA159 biofilm formation after 24 hr at 20 ug/ml by crystal violet staining analysis; assay type: functional; settings: UA159, 24 h
[21] = tested on: Streptococcus mutans; test: Inhibition of Streptococcus mutans UA159 biofilm formation at sub-MIC after 24 hr by crystal violet staining analysis; assay type: functional
[22] = tested on: Streptococcus mutans; test: Inhibition of Streptococcus mutans UA159 biofilm formation after 24 hr by crystal violet staining analysis; assay type: functional, organism-based

With `CCCCCCCCCCCCCCCCCCCCCCCCCCCC(=O)O` [N-OCTACOSANOIC ACID] the MIC [1] was 80 µg/mL (≈ 188 µM), the pH [2] was 6.48 and the pH [3] was 6.02. It also gave a pH [4] of 5.68, a pH [5] of 5.14 and a pH [6] of 7.55. The pH [7] was 6.98, the pH [8] was 6.66 and the pH [9] was 4.94. The pH [10] was 4.65, the biofilm thickness [11] was 12.7 µm and the inhibition [12] was “Active”. For the same compound, the inhibition [13] was 50%, the inhibition at 20 µg/mL [14] was 20.1% and the inhibition at 5 µg/mL [15] was 48.4%. For the same compound, the inhibition [16] was “Active”, the inhibition at 10 µg/mL [17] was 50% and the inhibition at 1.25 µg/mL [18] was 61.3%. The inhibition [19] was “Active”, the inhibition at 20 µg/mL [20] was 50% and the “inhibition (INH)” value [21] was 60%. For the same compound, the inhibition [22] was “Dose-dependent effect”.

— ChEMBL document CHEMBL3045716, “Isolation and characterization of n-octacosanoic acid from Viburnum foetens: a novel antibiofilm agent against Streptococcus Mutans” (2012)
